{
  "source": "paper PMC4955735",
  "about": "(Anesthesiology, 2016)",
  "key": {"[1]": {"details": "humans; cited from earlier work"}, "[2]": {"details": "rodents; cited from earlier work"}, "S.typhimurium TA 1537": {"test_system": "S.typhimurium TA 1537", "experiment": "Bacteria reverse mutation assay"}, "[3]": {"test_system": "THP-1, HepG2 and HEK293 cell lines", "experiment": "In vitro cell assays", "format": "cell-based", "details": "0.16 mM to 2.5 mM"}, "S.typhimurium TA 98": {"test_system": "S.typhimurium TA 98", "experiment": "Bacteria reverse mutation assay"}, "rats": {"test_system": "rats", "experiment": "Escalating phenylephrine infusion during continuous ketamine infusion", "format": "in vivo, rat", "details": "phenylephrine 4 to 10 μg/kg/min during steady state shallow ketamine anesthesia; n=3"}},
  "note": "Read-outs that look alike come from different tables or passages of the source.",
  "data": [
    {"smiles": "CCOC(=O)c1cncn1[C@H](C)c1ccccc1", "note": "[etomidate]", "values": [
      {"measurement": "plasma concentration at awakening", "setting": "[1]", "value": 0.28, "unit": "µg/mL"},
      {"measurement": "plasma concentration at maintenance of sedation", "setting": "[1]", "value": "0.3 to 0.6", "unit": "µg/mL"},
      {"measurement": "plasma concentration at awakening", "setting": "[2]", "value": 0.44, "unit": "µg/mL"}
    ]},
    {"smiles": "COc1ccc2nc3cc(Cl)ccc3c(NCCCNCCCl)c2c1", "note": "[191-A, ICR 191 Acridine, reference compound]", "values": [
      {"measurement": "number of colonies, positive control", "setting": "S.typhimurium TA 1537; TA 1537, −S9, 1 μg ICR 191 Acridine per plate", "value": "191-A 250"}
    ]},
    {"smiles": "CNC1(c2ccccc2Cl)CCCCC1=O", "note": "(stereo not drawn) [ketamine]", "values": [
      {"measurement": "plasma concentration at awakening", "setting": "[1]", "value": 1, "unit": "µg/mL"},
      {"measurement": "plasma concentration at maintenance of sedation", "setting": "[1]", "value": "2 to 3", "unit": "µg/mL"},
      {"measurement": "plasma concentration at awakening", "setting": "[2]", "value": 5, "unit": "µg/mL"}
    ]},
    {"smiles": "CC(O)COC[C@H]1O[C@@H]2O[C@H]3[C@H](O)[C@@H](O)[C@@H](O[C@H]4[C@H](O)[C@@H](O)[C@@H](O[C@H]5[C@H](O)[C@@H](O)[C@@H](O[C@H]6[C@H](O)[C@@H](O)[C@@H](O[C@H]7[C@H](O)[C@@H](O)[C@@H](O[C@H]8[C@H](O)[C@@H](O)[C@@H](O[C@H]1[C@H](O)[C@H]2O)O[C@@H]8COCC(C)O)O[C@@H]7COCC(C)O)O[C@@H]6COCC(C)O)O[C@@H]5COCC(C)O)O[C@@H]4COCC(C)O)O[C@@H]3COCC(C)O", "note": "(stereo partly drawn) [HP-β-CD, hydroxypropyl-β-cyclodextrin]", "values": [
      {"measurement": "toxicity in the same cell lines compared with calabadion 2", "setting": "[3]", "value": "very comparable"}
    ]},
    {"smiles": "[N-]=[N+]=[N-].[Na+]", "note": "[SA, Sodium Azide, reference compound]", "values": [
      {"measurement": "number of colonies, positive control", "setting": "S.typhimurium TA 1535; TA 1535, −S9, 1.5 μg Sodium Azide per plate", "value": "SA 446"},
      {"measurement": "number of colonies, positive control", "setting": "S.typhimurium TA 100; TA 100, −S9, 1.5 μg Sodium Azide per plate", "value": "SA 282"}
    ]},
    {"smiles": "COc1cccc2c1C(=O)c1c(O)c3c(c(O)c1C2=O)C[C@@](O)(C(C)=O)C[C@@H]3O[C@H]1C[C@H](N)[C@H](O)[C@H](C)O1", "note": "[D-myc, Daunomycin, reference compound]", "values": [
      {"measurement": "number of colonies, positive control", "setting": "S.typhimurium TA 98; TA 98, −S9, 6 μg Daunomycin per plate", "value": "D-myc 505"}
    ]},
    {"smiles": "CNC[C@H](O)c1cccc(O)c1", "note": "[phenylephrine]", "values": [
      {"measurement": "effect on EEG power", "setting": "rats", "value": "without effects on EEG power"},
      {"measurement": "effect on MAP", "setting": "rats", "value": "significant MAP increases"}
    ]},
    {"smiles": "CC[C@H]1OC(=O)[C@H](C)[C@@H](O[C@H]2C[C@@](C)(OC)[C@@H](O)[C@H](C)O2)[C@H](C)[C@@H](O[C@@H]2O[C@H](C)C[C@H](N(C)C)[C@H]2O)[C@](C)(O)C[C@@H](C)C(=O)[C@H](C)[C@@H](O)[C@]1(C)O", "note": "[erythromycin]", "values": [
      {"measurement": "toxicity in the same cell lines compared with calabadion 2", "setting": "[3]", "value": "very comparable"}
    ]},
    {"smiles": "Nc1ccc2cc3ccccc3cc2c1", "note": "[2-AA, 2-Aminoanthracene, reference compound]", "values": [
      {"measurement": "number of colonies, positive control", "setting": "S.typhimurium TA 1535; TA 1535, +S9, 10 μg 2-Aminoanthracene per plate", "value": "2-AA 91"},
      {"measurement": "number of colonies, positive control", "setting": "S.typhimurium TA 100; TA 100, +S9, 10 μg 2-Aminoanthracene per plate", "value": "2-AA 1307"},
      {"measurement": "number of colonies, positive control", "setting": "S.typhimurium TA 1537; TA 1537, +S9, 10 μg 2-Aminoanthracene per plate", "value": "2-AA 141"},
      {"measurement": "number of colonies, positive control", "setting": "S.typhimurium TA 98; TA 98, +S9, 10 μg 2-Aminoanthracene per plate", "value": "2-AA 1101"}
    ]}
  ]
}
